In publication PMC10915964, “Identifying ligands for the PHD1 finger of KDM5A through high-throughput screening†” (RSC Chemical Biology, 2023):

Molecular target: T1, GST-PHD1 (PHD1 finger of KDM5A) (Homo sapiens, UniProt P29375)
T1 construct: GST-PHD1(S287-E344); made in house; host or cells: E. coli BL21 (DE3), pET41a
T1 sequence (P29375 287-344): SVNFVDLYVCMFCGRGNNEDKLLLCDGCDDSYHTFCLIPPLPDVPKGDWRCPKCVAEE
Test: Competitive-binding fluorescence polarization (FP) assay, displacement of 5-FAM H3K4me0 10-mer from GST-PHD1
Conditions: for inhibition at 1000 µM: read-out: %I at 1 mM
Description: Fluorescence polarization (FP) has been widely used as a biophysical method to detect and quantify disruptions in protein–protein and protein–peptide interactions.[33,34] It served as the primary assay in the high-throughput screening (HTS) campaign to identify ligands for the PHD1 finger (Fig. 1b). The FP assay includes a GST-labeled […] construct and its H3K4me0 10-mer peptide substrate (Fig. 1c and d).[21,22] […]
Fig. 2 Dose-dependent inhibition of GST-PHD1 − H3 tail interaction by screen hits obtained from HTS of the NCI collection. […] DMSO is used as the negative (−) control (0% inhibition).
Fluorescence polarization high-throughput screening
To test the activity of purified GST-PHD1(S287-E344), direct-binding and competitive-binding fluorescence polarization (FP) were done, as previously described.3,4 For screening, GST-PHD1(S287-E344) was diluted in buffer (50 mM HEPES, pH 7.5, 50 mM KCl, 0.01% Tween-20, 1 mM TCEP) with 20 nM 5-carboxyfluorescein-labeled H3 10-mer peptide and with or without 0.1% bovine gamma globulin (BGG). This was treated as the assay buffer (with 0.1% BGG) and also as the negative control. For the positive control, 120 μM unlabeled H3K4 10-mer peptide was added to the assay buffer. The assay buffer was dispensed using the EL406 Biotek liquid dispenser onto black, round-bottom low volumes 384-microwell plates (Corning 4514) to a final volume of 10 μL per well. DMSO (10 nL or 50 nL) or screening compounds at 10 nL (ChemBridge Premium Diversity collection at 10 μM final) or 50 nL (ML fragments and NCI libraries at 50 μM final) was added to plates containing the assay buffer using the BioMek liquid handler/dispenser. The final DMSO in the samples was either 0.1% or 0.5%. Fluorescence polarization measurements were performed directly and after 45 minutes of incubation at room temperature using a Perkin Elmer Envision and XCite 2105 multimode microplate reader equipped with a stacker. Excitation light was delivered with a xenon flash lamp at 480/30 nm (BW) and emission was collected after passing through an emission filter (535/25 nm). For fluorescence polarization experiments, two 535/40 nm filters (S, P) and dual dichroic D505/D535 nm mirrors were used.
For FP-based assay optimization, the assay signal dynamic range was evaluated using the negative and positive control buffers with varying amounts of GST-PHD1 (0.5, 1, 1.5, or 2 μM) in the presence or absence of 0.1% BGG. For each condition, buffer was dispensed into 3 columns of a 384-well plate (48 wells each) using the BioMek liquid dispenser and the FP signal was recorded. The Z′ value reports on the assay robustness by reflecting both the dynamic range and the data variation associated with assay measurements.5 The Z′ value is given by the following equation: […]
where σ represents the standard deviation, PC represents the positive control, NC represents the negative control, and μ represents the mean value of the FP signal.
Screen results were analyzed using the UCSF SMDC web application called HiTS […]
(http://smdc.ucsf.edu/hits/). […]
equal to 3 standard deviations of the mean percent inhibition values, where the negative control is set to 0% inhibition and the positive control is set to 100% inhibition. Cheminformatics analysis on the screen hits was done using DataWarrior, an open-source program for data visualization and analysis with chemical intelligence.6 The Tanimoto coefficient was used to gauge the similarity and diversity of screen hits and cluster any compounds with greater than 75% similarity.
Screen hits were repurchased when available. Structurally similar derivatives were purchased when exact compounds were not available for purchase. Compound purity was confirmed by LCMS. All compounds were dissolved in DMSO-d6 to a final concentration of 40 mM unless otherwise specified. All putative screen hits were confirmed in dose-response using the competitive binding fluorescence polarization […]
assay. […]

[1] = 1 mM compound, quadruplicate (n = 1 for R1 = OBn; n = 2 for R1 = Me)

SMILES | inhibition at 1000 µM [1] [%] | further results
CC(=O)c1c(C)oc2ccc(N(C(C)=O)S(=O)(=O)c3ccc(C(=O)O)cc3)cc12 [7 917 645] | 30 | –
Cc1oc2ccc(NS(=O)(=O)c3ccccc3)cc2c1C(=O)OCc1ccccc1 [Compound 8018-7366] | 6 | potency relative to parent hit (FP concentration-response, compared with 516 969 or 990 099): drastically reduced potency
C[C@H](N)C(=O)N[C@@H](CCCNC(=N)N)C(=O)N[C@H](C(=O)N[C@@H](CCCCN)C(=O)N[C@@H](CCC(N)=O)C(=O)N[C@H](C(=O)N[C@@H](C)C(=O)N[C@@H](CCCNC(=N)N)C(=O)N[C@@H](CCCCN)C(=O)N[C@@H](CO)C(=O)O)[C@@H](C)O)[C@@H](C)O [unlabeled H3 peptide, reference compound] | – | Ki (displacement of 5-FAM H3 10-mer (10 nM) from GST-PHD1 (2 μM)): 0.95 ± 0.14 µM

Now from value to compound, other results behind:

inhibition at 1000 µM [1] [%] | SMILES | further results
38 | CC(=O)c1c(C)oc2ccc(NS(=O)(=O)c3ccc(C(=O)O)cc3)cc12 [Compound B1, 4-(N-(3-acetyl-2-methylbenzofuran-5-yl)sulfamoyl)benzoic acid] | %I at 1 mM [1]: 38%
12 | CC(=O)c1c(C)oc2ccc(NS(=O)(=O)c3ccc(C(N)=O)cc3)cc12 [Compound B3, 4-(N-(3-acetyl-2-methylbenzofuran-5-yl)sulfamoyl)benzamide] | –
9 | CC(=O)c1c(C)oc2ccc(NS(=O)(=O)c3cccc(C(N)=O)c3)cc12 [Compound B4, 3-(N-(3-acetyl-2-methylbenzofuran-5-yl)sulfamoyl)benzamide] | –
11 | CCOC(=O)c1ccc(S(=O)(=O)Nc2ccc3oc(C)c(C(C)=O)c3c2)cc1 [Compound B5, ethyl 4-(N-(3-acetyl-2-methylbenzofuran-5-yl)sulfamoyl)benzoate] | –
4 | COC(=O)c1cccc(S(=O)(=O)Nc2ccc3oc(C)c(C(C)=O)c3c2)c1 [Compound B6, methyl 3-(N-(3-acetyl-2-methylbenzofuran-5-yl)sulfamoyl)benzoate] | –
13 | CC(=O)c1c(C)oc2ccc(NS(=O)(=O)c3cccc(Cl)c3)cc12 [Compound B7, N-(3-acetyl-2-methylbenzofuran-5-yl)-3-chlorobenzenesulfonamide] | –
